Laboratory results from ChEMBL document CHEMBL1201862, “PubChem BioAssay data set” (2004).
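A five-concentration, 48-hour dose response in 96-well plates underlies each endpoint, interpolated linearly between surrounding concentrations. GI50 is the concentration that inhibits growth by half.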 The source made the active and inactive calls. Cut-off read from the data, not from the text of the source: active = GI50 up to about 1.1 µM and inactive = higher.

Legend:
Assay in all cases: NCI tumour cell line growth inhibition, 48 h
OVCAR-8 = test system: OVCAR-8
Hs-578T = test system: Hs-578T
NCI-H522 = test system: NCI-H522
SF-295 = test system: SF-295
SR = test system: SR
SNB-19 = test system: SNB-19
HOP-62 = test system: HOP-62
KM12 = test system: KM12
UACC-257 = test system: UACC-257
SF-268 = test system: SF-268
HL-60 = test system: HL-60
MDA-MB-435 = test system: MDA-MB-435
CAKI-1 = test system: CAKI-1
NCI-H23 = test system: NCI-H23
LXFL 529 = test system: LXFL 529
HCT-15 = test system: HCT-15
LOX IMVI = test system: LOX IMVI
OVCAR-4 = test system: OVCAR-4
MOLT-4 = test system: MOLT-4
HT-29 = test system: HT-29

SMILES	GI50 (OVCAR-8)	GI50 (Hs-578T)	GI50 (NCI-H522)	GI50 (SF-295)	GI50 (SR)	GI50 (SNB-19)	GI50 (HOP-62)	GI50 (KM12)	GI50 (UACC-257)	GI50 (SF-268)	GI50 (HL-60)	GI50 (MDA-MB-435)	GI50 (CAKI-1)	GI50 (NCI-H23)	GI50 (LXFL 529)	GI50 (HCT-15)	GI50 (LOX IMVI)	GI50 (OVCAR-4)	GI50 (MOLT-4)	GI50 (HT-29)
Nc1ccc(S(=O)(=O)Nc2cnc3ccccc3n2)cc1 [SULFAQUINOXALINE]	> 100 µM (inactive)	< 0.01 µM (active)	> 100 µM (inactive)	> 100 µM (inactive)	> 100 µM (inactive)	> 100 µM (inactive)	> 100 µM (inactive)	> 100 µM (inactive)	> 100 µM (inactive)	> 87.9 µM (inactive)	> 100 µM (inactive)	> 100 µM (inactive)	> 100 µM (inactive)	> 100 µM (inactive)	> 100 µM (inactive)	> 100 µM	> 100 µM (inactive)	> 100 µM (inactive)	> 100 µM (inactive)	> 100 µM (inactive)
O=C(O)c1c([N+](=O)[O-])cc(C(F)(F)F)cc1[N+](=O)[O-]	> 100 µM (inactive)		> 100 µM (inactive)	> 100 µM (inactive)	> 100 µM (inactive)	> 100 µM (inactive)	> 100 µM (inactive)	> 100 µM (inactive)	> 100 µM (inactive)	> 100 µM (inactive)	> 100 µM (inactive)		> 100 µM (inactive)	> 100 µM (inactive)	> 100 µM (inactive)	> 100 µM	> 100 µM (inactive)	> 100 µM (inactive)	> 100 µM (inactive)	> 100 µM (inactive)
CC(C)(O)[C@@H]1CC[C@@]2(C)CCCC(O)C2(O)C1 (stereo partly specified)	> 100 µM (inactive)		> 100 µM (inactive)	> 100 µM (inactive)	> 100 µM (inactive)	> 100 µM (inactive)	> 100 µM (inactive)	> 100 µM (inactive)	> 100 µM (inactive)	> 100 µM (inactive)	> 100 µM (inactive)		> 100 µM (inactive)	> 100 µM (inactive)	> 100 µM (inactive)	> 100 µM	> 100 µM (inactive)	> 100 µM (inactive)	> 100 µM (inactive)	> 100 µM (inactive)
